One assay concerns the target T1, RARα (Homo sapiens, UniProt P10276).
T1 sequence (P10276 1-462): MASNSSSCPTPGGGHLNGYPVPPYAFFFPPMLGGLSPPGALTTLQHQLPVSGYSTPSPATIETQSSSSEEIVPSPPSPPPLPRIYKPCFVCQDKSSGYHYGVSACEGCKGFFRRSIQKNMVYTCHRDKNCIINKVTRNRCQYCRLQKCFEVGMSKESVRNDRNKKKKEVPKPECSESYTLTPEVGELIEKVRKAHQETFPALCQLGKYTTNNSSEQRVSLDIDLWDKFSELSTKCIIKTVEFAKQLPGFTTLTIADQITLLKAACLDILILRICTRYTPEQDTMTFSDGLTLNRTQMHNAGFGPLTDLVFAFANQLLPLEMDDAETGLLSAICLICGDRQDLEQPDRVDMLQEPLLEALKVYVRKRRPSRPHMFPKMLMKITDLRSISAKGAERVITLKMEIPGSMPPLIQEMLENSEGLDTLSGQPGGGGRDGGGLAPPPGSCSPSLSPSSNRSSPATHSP
The experiment in a line: ligand binding assay, RARα. The following applies: second entry of cell, read-out: RAR Bind. Ki (nM) α. The text has this:
(§1) A holoreceptor transactivation assay and a ligand binding assay which measure the antagonist/agonist like activity of the compounds of the invention, or their ability to bind to the several retinoid receptor subtypes, respectively, are described in published PCT Application No. WO WO93/11755 (particularly on pages 30-33 and 37-41) published on Jun. 24, 1993, the specification of which is also incorporated herein by reference. A detailed experimental procedure for holoreceptor transactivations has been described by Heyman et al. Cell 68, 397-406, (1992); Allegretto et al. J. Biol. Chem. 268, 26625-26633, and Mangelsdorf et al. The Retinoids: Biology, Chemistry and Medicine, pp 319-349, Raven Press Ltd., New York, which are expressly incorporated herein by reference. The results obtained in this assay are expressed in EC50 numbers, as they are also in the chimeric receptor transactivation assay. The results of ligand binding assay are expressed in Kd numbers. (See Cheng et al. Biochemical Pharmacology Vol. 22 pp 3099-3108, expressly incorporated herein by reference.)

Assay [1] has as its target T2, RXRγ (UniProt P28705).
T2 sequence (P28705 1-463): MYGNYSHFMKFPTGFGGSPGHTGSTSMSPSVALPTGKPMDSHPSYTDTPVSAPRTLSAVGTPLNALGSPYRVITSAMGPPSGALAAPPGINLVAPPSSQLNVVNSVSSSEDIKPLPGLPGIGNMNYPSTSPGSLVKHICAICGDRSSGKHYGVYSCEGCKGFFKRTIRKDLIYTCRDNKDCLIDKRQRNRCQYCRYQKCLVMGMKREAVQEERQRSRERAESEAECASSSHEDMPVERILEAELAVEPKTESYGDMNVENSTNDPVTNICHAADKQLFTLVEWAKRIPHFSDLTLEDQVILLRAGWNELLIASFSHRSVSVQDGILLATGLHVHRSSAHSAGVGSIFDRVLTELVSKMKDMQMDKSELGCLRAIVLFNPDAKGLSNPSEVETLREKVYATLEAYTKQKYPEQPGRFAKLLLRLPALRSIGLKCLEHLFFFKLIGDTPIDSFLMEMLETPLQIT
The assay can be described thus: ligand binding assay, RXRγ. Details: other: RXRγ; last entry of cell. The following applies: last entry of cell, read-out: RXR Bind Ki (nM) γ.
Excerpt: as §1

The target of the next assay is T3, RARγ (Homo sapiens, UniProt P13631).
T3 sequence (P13631 1-454): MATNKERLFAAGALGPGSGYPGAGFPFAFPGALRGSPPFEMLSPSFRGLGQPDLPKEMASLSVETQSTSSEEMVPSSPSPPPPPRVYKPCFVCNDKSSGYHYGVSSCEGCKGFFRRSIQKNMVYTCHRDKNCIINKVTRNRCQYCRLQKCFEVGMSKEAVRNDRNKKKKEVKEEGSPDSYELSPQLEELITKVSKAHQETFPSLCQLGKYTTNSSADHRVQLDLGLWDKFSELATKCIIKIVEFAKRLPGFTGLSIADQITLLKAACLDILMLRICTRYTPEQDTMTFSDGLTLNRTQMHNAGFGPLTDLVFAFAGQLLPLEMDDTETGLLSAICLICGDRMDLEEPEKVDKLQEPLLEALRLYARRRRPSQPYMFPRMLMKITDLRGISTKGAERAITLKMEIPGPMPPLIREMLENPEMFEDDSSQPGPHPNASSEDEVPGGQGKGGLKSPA
The assay can be described thus: ligand binding assay, RARγ. Conditions: second entry of cell, read-out: RAR Bind. Ki (nM) γ.
Excerpt: as §1

Assay [2] addresses T2, RXRγ. The assay can be described thus: receptor transactivation assay, RXRγ. The class given is cell-based. Details: RXR Trans; other: RXRγ; first entry of cell. The following applies: for EC50: first entry of cell, read-out: RXR Trans. EC50 (nM) γ; for RXR Trans. γ, number in parentheses after EC50: parenthesised number, not defined in the patent.
Excerpt: as §1

A further assay concerns the target T4, RXRα (Homo sapiens, UniProt P19793).
T4 sequence (P19793 1-462): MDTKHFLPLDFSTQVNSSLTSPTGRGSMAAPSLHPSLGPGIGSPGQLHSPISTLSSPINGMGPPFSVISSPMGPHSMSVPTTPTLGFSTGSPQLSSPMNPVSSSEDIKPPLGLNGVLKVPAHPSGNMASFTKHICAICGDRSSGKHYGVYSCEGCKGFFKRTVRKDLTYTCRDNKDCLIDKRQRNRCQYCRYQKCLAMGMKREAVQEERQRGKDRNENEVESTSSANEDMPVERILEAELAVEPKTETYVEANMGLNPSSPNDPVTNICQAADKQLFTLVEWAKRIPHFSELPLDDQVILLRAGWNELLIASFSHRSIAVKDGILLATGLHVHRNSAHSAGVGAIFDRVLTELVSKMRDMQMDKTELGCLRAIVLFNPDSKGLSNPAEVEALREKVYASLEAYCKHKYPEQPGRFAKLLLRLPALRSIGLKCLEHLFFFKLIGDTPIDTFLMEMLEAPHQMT
The experiment in a line: ligand binding assay, RXRα. The following applies: last entry of cell, read-out: RXR Bind Ki (nM) α.
Excerpt: as §1

This note sets out measurements from patent publication US6720423B2, “Dihydrobenzofuran and dihydrobenzothiophene 2,4-pentadienoic acid derivatives having selective activity for retinoid X (RXR) receptors” (Allergan, Inc., priority 2002, dated 2004).

On to `CC(/C=C/[C@@H]1C[C@]1(C)c1ccc2c(c1)C(C)(C)CO2)=C\C(=O)O` [Compound 2, (6S,7S)-7-[5-(3,3-Dimethyl-2,3-dihydro-benzofuranyl)]-6.7-methano-3-methyl-octa-2E,4E-dienoic Acid], for which the inhibitory constant (Ki) on RARα was greater than 10000 nM; on RXRγ [1], 35 nM; on RARγ, greater than 10000 nM; at RXRα it was 7.8 nM. For the same molecule, the EC50 on RXRγ [2] came to 2.7 nM. The “RXR Trans. γ, number in parentheses after EC50” value (“RXR Trans. γ, number” below) on RXRγ [2] was 119.

For `CC(/C=C/[C@@H]1C[C@]1(C)c1cc(C)c2c(c1)C(C)(C)CO2)=C\C(=O)O` [Compound 4, (6S,7S)-7-[5-(3,3,7-Trimethyl-2,3-dihydro-benzofuranyl)]-6,7-methano-3-methyl-octa-2E,4E-dienoic acid], the inhibitory constant (Ki) at RARα was greater than 10000 nM; on RXRγ [1] it was 9.9 nM; on RARγ, greater than 10000 nM; at RXRα, 6.3 nM. Also, at RXRγ [2], the EC50 was 4.4 nM. At RXRγ [2], the “RXR Trans. γ, number” value was found to be 108.

Consider `CCc1cc([C@@]2(C)C[C@H]2/C=C/C(C)=C/C(=O)O)cc2c1OCC2(C)C` [Compound 6], for which the Ki on RARα is greater than 30000 nM; at RXRγ [1], 3.2 nM; on RARγ, 13000 nM; at RXRα, 0.72 nM. Also, the 50% effective concentration (EC50) at RXRγ [2] was found to be 0.56 nM. Also, the “RXR Trans. γ, number” value at RXRγ [2] came to 85.

With `CC(/C=C/[C@@H]1C[C@]1(C)c1cc(C(C)C)c2c(c1)C(C)(C)CO2)=C\C(=O)O` [Compound 8, (6S,7S)-7-[5-(3,3-Dimethyl-7-iso-propyl-2,3-dihydro-benzofuranyl)]-6,7-methano-3-methyl-octa-2E,4E-dienoic Acid], the Ki on RARα is 42000 nM; at RXRγ [1] it was 8.6 nM; on RARγ, 7510 nM; on RXRα it was 1.7 nM. In addition, the concentration for a half-maximal effect (EC50) at RXRγ [2] was determined as 0.23 nM. For the same molecule, the “RXR Trans. γ, number” value at RXRγ [2] is given as 108.

For `CC(/C=C/[C@@H]1C[C@]1(C)c1cc(C(C)(C)C)c2c(c1)C(C)(C)CO2)=C\C(=O)O` [Compound 10, (6S,7S)-7-[5-(3,3-Dimethyl-7-t-butyl-2,3-dihydro-benzofuranyl)]-6,7-methano-3-methyl-octa-2E,4E-dienoic acid], the inhibition constant Ki on RARα came to 11000 nM; on RXRγ [1], 1.3 nM; at RARγ, 13000 nM; on RXRα, 0.8 nM. Besides, the EC50 on RXRγ [2] is 0.78 nM. Also, the “RXR Trans. γ, number” value on RXRγ [2] is 95.

Take `CC(/C=C/[C@@H]1C[C@]1(C)c1cc(CC(C)(C)C)c2c(c1)C(C)(C)CO2)=C\C(=O)O` [Compound 12, 5-{(1S,2S) 2-[7-(2,2-Dimethyl-propyl)-3,3-dimethyl-2,3-dihydro-benzofuran-5-yl]-2-methyl-cyclopropyl}-3-methyl-penta-2E,4E-dienoic Acid]: the inhibitory constant (Ki) at RARα is 18000 nM; on RXRγ [1] it was 0.7 nM; on RARγ it was 8910 nM; on RXRα, 0.2 nM. Also, the concentration giving a half-maximal response (EC50) on RXRγ [2] is 0.42 nM. Also, the “RXR Trans. γ, number” value at RXRγ [2] is 101.

Take `CC(/C=C/[C@@H]1C[C@]1(C)c1cc(Cc2ccccc2)c2c(c1)C(C)(C)CO2)=C\C(=O)O` [Compound 14, (6S,7S)-7-[5-(7-Benzyl-3,3-dimethyl-2,3-dihydro-benzofuranyl)]-6,7-methano-3-methyl-octa-2E,4E-dienoic Acid]: the Ki at RARα worked out at 8720 nM; on RXRγ [1], 9.2 nM; on RARγ, 6650 nM; at RXRα, 0.8 nM. In addition, at RXRγ [2], the EC50 came out at 0.0973 nM. For the same molecule, the “RXR Trans. γ, number” value at RXRγ [2] is 105.

`CC(/C=C/[C@@H]1C[C@]1(C)c1cc(CC2CCCCC2)c2c(c1)C(C)(C)CO2)=C\C(=O)O` [Compound 16, (6S,7S)-7-[5-(7-Cyclohexylmethyl-3,3-dimethyl-2,3-dihydro-benzofuranyl)]-6,7-methano-3-methyl-octa-2E,4E-dienoic Acid]: the Ki on RARα was 8800 nM; at RXRγ [1], 1.9 nM; on RARγ, 12000 nM; on RXRα it was 0.3 nM. Further, the EC50 at RXRγ [2] worked out at 0.29 nM. At RXRγ [2], the “RXR Trans. γ, number” value is given as 83.

Regarding `CCCCCCc1cc([C@@]2(C)C[C@H]2/C=C/C(C)=C/C(=O)O)cc2c1OCC2(C)C` [Compound 18, (6S,7S)-7-[5-(3,3-Dimethyl-7-hexyl-2,3-dihydro-benzofuranyl)]-6,7-methano-3-methyl-octa-2E,4E-dienoic acid], the inhibitory constant (Ki) on RARα was found to be 12000 nM; at RXRγ [1], 2 nM; on RARγ, 9260 nM; on RXRα it was 1.9 nM. For the same molecule, the concentration giving a half-maximal response (EC50) at RXRγ [2] is 0.36 nM. For the same molecule, the “RXR Trans. γ, number” value on RXRγ [2] worked out at 99.

In the case of `CC(/C=C/[C@@H]1C[C@]1(C)c1cc(Br)c2c(c1)C(C)(C)CO2)=C\C(=O)O` [Compound 20, (6S,7S)-7-[5-(7-Bromo-3,3-dimethyl-2,3-dihydro-benzofuranyl)]-6,7-methano-3-methyl-octa-2E,4E-dienoic Acid], the Ki at RARα was greater than 10000 nM; at RXRγ [1], 40 nM; at RARγ it was greater than 10000 nM; on RXRα, 7.1 nM. Besides, the 50% effective concentration (EC50) at RXRγ [2] is 3.4 nM. Further, the “RXR Trans. γ, number” value on RXRγ [2] is given as 111.

For `CC(/C=C/[C@@H]1C[C@]1(C)c1cc(-c2ccccc2)c2c(c1)C(C)(C)CO2)=C\C(=O)O` [Compound 22, 6S,7S)-7-[5-(3,3-Dimethyl-7-phenyl-2,3-dihydro-benzofuranyl)1-6,7-methano-3-methyl-octa-2E,4E-dienoic acid], the inhibition constant Ki was greater than 10000 nM at RARα, 6.2 nM on RXRγ [1], greater than 5260 nM on RARγ and 2.3 nM at RXRα. Moreover, the EC50 on RXRγ [2] worked out at 12.8 nM. For the same molecule, the “RXR Trans. γ, number” value on RXRγ [2] is recorded as 110.

As to `CCCCCCCc1ccccc1-c1cc([C@@]2(C)C[C@H]2/C=C/C(C)=C/C(=O)O)cc2c1OCC2(C)C` [Compound 28], the results for the Ki on RARα, on RARγ and at RXRα were 2620 nM, 9540 nM and 35 nM, respectively. For the same molecule, the 50% effective concentration (EC50) at RXRγ [2] worked out at 850 nM. The “RXR Trans. γ, number” value at RXRγ [2] was 88.
